How the values were obtained:
[1] = target: T1, Tyrosine-protein kinase TXK (Homo sapiens, UniProt P42681); assay: Inhibition of recombinant human N-terminal GST-tagged TXK (260 to 527 residues) expressed in baculovirus expression system using tyrosine-6 peptide as substrate preincubated for 1 hr in presence of ATP by Z'-LYTE assay
T1 sequence (P42681 whole entry): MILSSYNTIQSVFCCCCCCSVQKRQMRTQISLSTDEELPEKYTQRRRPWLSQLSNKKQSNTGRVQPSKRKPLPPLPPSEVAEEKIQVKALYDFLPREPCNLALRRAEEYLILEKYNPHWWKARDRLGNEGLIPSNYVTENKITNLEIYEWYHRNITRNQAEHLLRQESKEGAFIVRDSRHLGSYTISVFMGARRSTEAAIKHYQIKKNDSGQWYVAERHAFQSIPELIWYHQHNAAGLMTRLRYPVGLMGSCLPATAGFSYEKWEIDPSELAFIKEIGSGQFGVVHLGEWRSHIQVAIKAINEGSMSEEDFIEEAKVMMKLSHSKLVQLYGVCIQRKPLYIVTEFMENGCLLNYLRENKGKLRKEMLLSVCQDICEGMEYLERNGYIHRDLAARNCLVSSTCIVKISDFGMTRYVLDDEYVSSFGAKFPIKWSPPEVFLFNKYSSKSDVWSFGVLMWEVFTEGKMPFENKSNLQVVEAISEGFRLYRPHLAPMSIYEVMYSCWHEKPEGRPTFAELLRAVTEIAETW

[2] = In vivo inhibition of CD69 expression in po dosed mouse; type: functional
[3] = target: Receptor tyrosine-protein kinase erbB-2 (Homo sapiens, UniProt P04626); assay: Inhibition of His-tagged human recombinant ERBB2 (676 to 1255 residues) expressed in baculovirus expression system using Tyr 06 as substrate preincubated for 1 hr in presence of ATP by Z'-LYTE assay
[4] = Inhibition of goat anti-human IgM F(ab')-stimulated CD69 cell surface expression in human PBMC preincubated for 2 hrs followed by anti-human IgM stimulation for 18 hrs by flow cytometric analysis; type: functional, tissue-based
[5] = target: Epidermal growth factor receptor (Homo sapiens, UniProt P00533); assay: Inhibition of EGFR phosphorylation in human A431 cells; type: cell-based
[6] = target: Tyrosine-protein kinase Blk (Homo sapiens, UniProt P51451); assay: Inhibition of recombinant full length human His-tagged BLK cytoplasmic domain expressed in baculovirus expression system using tyrosine-1 peptide as substrate preincubated for 1 hr in presence of ATP by Z'-LYTE assay
[7] = target: T2, Tyrosine-protein kinase JAK3 (Homo sapiens, UniProt P52333); assay: Inhibition of recombinant human GST-tagged JAK3 catalytic domain (781 to 1124 residues) expressed in baculovirus expression system using tyrosine-6 peptide as substrate preincubated for 1 hr in presence of ATP by Z'-LYTE assay
T2 sequence (P52333 whole entry): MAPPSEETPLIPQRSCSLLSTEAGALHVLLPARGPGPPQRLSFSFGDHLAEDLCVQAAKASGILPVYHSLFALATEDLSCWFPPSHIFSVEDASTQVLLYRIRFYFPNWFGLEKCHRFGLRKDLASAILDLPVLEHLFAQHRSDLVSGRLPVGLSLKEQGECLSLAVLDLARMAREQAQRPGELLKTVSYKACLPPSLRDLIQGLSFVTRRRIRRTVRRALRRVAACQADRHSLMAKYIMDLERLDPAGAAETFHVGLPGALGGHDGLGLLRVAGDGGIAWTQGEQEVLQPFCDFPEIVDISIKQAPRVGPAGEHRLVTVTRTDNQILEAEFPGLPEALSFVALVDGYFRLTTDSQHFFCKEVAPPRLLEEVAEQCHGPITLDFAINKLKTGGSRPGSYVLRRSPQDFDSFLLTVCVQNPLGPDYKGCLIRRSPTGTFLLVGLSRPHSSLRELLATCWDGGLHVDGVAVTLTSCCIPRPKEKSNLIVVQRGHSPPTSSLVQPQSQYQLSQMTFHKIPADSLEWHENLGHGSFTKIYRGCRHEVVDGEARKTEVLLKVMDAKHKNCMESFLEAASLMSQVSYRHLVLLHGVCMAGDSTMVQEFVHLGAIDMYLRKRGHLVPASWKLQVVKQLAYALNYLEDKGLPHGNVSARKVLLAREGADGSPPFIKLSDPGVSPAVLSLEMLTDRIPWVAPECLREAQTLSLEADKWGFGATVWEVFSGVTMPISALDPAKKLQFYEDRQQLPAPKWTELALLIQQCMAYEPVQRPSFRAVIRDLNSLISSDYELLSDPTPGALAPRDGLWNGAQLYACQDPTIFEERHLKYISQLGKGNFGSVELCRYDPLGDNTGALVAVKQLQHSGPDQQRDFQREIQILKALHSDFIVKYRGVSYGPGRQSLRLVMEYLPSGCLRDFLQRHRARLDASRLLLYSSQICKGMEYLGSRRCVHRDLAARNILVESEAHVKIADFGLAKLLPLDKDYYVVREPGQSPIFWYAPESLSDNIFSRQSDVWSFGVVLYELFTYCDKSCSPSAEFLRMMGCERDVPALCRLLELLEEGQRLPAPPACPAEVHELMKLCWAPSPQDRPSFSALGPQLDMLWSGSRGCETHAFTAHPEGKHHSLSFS

EGFR (phosphorylation) = EGFR (phosphorylation) (Homo sapiens, UniProt P00533); assay: Inhibition of EGFR phosphorylation in human A431 cells at 10000 nM relative to control; type: cell-based
Blood = assay: Inhibition of mouse anti-human anti-IgD-stimulated CD86 cell surface expression in human whole blood preincubated for 2 hrs followed by anti-human anti-IgD stimulation for 18 hrs by flow cytometric analysis; type: functional, tissue-based
[8] = Inhibition of goat anti-human IgM F(ab')-stimulated CD86 cell surface expression in human PBMC preincubated for 2 hrs followed by anti-human IgM stimulation for 18 hrs by flow cytometric analysis; type: functional, tissue-based

Chain of Receptor tyrosine-protein kinase erbB-2 (P04626 whole entry, the tested form may be a part): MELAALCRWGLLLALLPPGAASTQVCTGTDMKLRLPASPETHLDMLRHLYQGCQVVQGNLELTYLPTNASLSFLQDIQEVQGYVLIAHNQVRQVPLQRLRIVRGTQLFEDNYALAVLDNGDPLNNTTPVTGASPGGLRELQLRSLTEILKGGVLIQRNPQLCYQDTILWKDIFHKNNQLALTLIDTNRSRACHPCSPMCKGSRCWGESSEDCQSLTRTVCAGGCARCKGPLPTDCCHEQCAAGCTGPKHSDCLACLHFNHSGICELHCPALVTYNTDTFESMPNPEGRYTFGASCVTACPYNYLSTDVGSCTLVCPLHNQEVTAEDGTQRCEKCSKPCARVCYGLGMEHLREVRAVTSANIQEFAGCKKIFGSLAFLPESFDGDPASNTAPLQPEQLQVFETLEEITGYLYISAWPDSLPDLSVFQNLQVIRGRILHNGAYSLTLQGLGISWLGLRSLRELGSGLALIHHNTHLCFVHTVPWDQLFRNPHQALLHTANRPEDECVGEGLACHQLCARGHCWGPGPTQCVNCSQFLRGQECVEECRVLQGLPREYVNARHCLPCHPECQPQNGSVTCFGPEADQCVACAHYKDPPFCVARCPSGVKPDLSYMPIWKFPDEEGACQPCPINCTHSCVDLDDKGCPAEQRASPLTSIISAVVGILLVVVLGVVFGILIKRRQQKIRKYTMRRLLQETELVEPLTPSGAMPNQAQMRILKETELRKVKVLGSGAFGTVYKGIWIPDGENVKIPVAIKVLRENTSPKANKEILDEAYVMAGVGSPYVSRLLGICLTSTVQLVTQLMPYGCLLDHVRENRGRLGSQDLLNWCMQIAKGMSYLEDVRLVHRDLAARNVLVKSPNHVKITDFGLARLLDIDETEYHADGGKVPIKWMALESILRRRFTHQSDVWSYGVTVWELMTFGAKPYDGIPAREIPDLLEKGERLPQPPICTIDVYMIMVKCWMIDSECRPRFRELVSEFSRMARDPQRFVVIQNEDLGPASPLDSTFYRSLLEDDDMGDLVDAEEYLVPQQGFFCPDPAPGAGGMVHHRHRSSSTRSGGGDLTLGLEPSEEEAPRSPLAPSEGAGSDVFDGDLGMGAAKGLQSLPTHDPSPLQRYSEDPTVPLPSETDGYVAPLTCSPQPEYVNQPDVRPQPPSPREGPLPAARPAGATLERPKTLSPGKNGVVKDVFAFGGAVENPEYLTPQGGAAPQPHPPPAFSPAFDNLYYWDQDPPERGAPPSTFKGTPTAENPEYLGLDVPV
Chain of Tyrosine-protein kinase Blk (P51451 whole entry, the tested form may be a part): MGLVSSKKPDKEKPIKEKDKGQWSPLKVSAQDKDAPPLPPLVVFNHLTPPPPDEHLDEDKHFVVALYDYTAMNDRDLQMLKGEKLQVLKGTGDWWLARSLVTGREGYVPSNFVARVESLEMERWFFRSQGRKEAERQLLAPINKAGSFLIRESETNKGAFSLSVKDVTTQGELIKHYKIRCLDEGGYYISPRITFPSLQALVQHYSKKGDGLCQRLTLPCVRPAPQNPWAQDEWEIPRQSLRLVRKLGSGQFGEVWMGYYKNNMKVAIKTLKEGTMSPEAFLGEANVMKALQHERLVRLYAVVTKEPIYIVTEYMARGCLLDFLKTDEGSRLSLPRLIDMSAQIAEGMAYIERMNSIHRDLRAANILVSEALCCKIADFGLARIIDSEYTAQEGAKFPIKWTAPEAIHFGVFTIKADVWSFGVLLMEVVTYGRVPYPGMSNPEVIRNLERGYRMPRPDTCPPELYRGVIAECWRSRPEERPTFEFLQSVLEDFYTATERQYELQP
Chain of Epidermal growth factor receptor (P00533 whole entry, the tested form may be a part): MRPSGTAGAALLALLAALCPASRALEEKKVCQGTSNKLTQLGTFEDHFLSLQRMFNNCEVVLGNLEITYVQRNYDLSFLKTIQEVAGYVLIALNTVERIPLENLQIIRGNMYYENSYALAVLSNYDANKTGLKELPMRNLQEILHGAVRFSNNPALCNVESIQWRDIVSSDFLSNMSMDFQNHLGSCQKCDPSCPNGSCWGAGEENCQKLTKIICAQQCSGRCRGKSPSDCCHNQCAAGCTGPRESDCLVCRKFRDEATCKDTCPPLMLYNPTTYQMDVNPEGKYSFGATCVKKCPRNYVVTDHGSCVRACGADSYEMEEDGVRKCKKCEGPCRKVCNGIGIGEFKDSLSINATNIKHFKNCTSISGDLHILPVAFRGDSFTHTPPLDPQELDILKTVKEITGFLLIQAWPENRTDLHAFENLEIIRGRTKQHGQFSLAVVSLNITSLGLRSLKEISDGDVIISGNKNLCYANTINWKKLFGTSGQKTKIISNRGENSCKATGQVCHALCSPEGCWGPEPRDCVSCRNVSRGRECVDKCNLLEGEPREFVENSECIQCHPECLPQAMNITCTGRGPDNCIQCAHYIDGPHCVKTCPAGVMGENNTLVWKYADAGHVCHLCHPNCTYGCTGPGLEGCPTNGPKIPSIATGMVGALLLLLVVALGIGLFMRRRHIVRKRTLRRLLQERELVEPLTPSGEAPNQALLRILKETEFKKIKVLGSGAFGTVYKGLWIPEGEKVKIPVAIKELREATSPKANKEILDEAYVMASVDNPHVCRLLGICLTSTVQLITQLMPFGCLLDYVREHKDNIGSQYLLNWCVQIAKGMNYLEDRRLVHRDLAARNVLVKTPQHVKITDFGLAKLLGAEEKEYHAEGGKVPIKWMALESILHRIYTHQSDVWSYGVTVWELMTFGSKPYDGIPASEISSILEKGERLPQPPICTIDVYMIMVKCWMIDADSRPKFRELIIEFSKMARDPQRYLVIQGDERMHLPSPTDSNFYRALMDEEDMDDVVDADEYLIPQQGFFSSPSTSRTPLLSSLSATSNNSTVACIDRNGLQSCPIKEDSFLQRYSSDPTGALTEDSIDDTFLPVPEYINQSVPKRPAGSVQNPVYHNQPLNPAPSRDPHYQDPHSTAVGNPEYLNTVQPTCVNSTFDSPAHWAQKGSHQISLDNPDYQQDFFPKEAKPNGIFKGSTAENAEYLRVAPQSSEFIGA
Chain of EGFR (phosphorylation) (P00533 whole entry): as the sequence (P00533 whole entry, the tested form may be a part) above

| IC50 [1] | IC50 [3] | EC50 [4] | EC50 [5] | IC50 [6] | IC50 [7] | inhibition at 10 µM (EGFR (phosphorylation)) | EC50 (Blood) | EC50 [8] | SMILES | ED50 [2] |
| --- | --- | --- | --- | --- | --- | --- | --- | --- | --- | --- |
| 19 nM | 41 nM | 1.8 nM | > 1000 nM | 8.3 nM | 174 nM |  |  |  | COc1cc2nccc(Oc3ccc(C(=O)Nc4ccccn4)cc3)c2cc1NC(=O)C#CCCN1CCOCC1 | 13 mg/kg |
| 229 nM | > 1000 nM | 4.1 nM | > 1000 nM | 72 nM | > 1000 nM |  |  |  | CC#CC(=O)Nc1cc2c(Oc3ccc(C(=O)Nc4ccccn4)cc3)ccnc2cc1OCCN1CCOCC1 |  |
| 294 nM | 268 nM | 15 nM |  | 21.2 nM | 838 nM | 36% | 267 nM | 21 nM | C=CC(=O)Nc1ccc2nccc(Oc3ccc(C(=O)Nc4cc(CC)ccn4)cc3)c2c1 |  |
